The source made the active and inactive calls. The calls are words filed in the database; no cut-off is given here.
How the values were obtained:
Tubulin (Sus scrofa) [1] = target: T1, Tubulin (Sus scrofa) (UniProt P02554+P02550); test: (§1) Inhibition of porcine brain tubulin polymerization incubated for 60 mins by fluorescence-based assay
Tubulin = Tubulin (Sus scrofa, UniProt P02554+P02550); test: as §1
HUVEC [2] = test: Toxicity in HUVEC assessed as effect on cell proliferation at 10 to 40 nM incubated for 8 hrs; assay type: cell-based; conditions: human, 0.04 µM
[3] = system: Non-small cell lung cancer cell line; test: Antitumor activity against human NSCLC xenografted in Balb/c-nu mouse assessed as inhibition of tumor growth at 12.5 mg/kg, ip dosed every day for 21 consecutive days and measured every 3 days; assay type: functional; conditions: 72 h, read-out: TGI
NCI-H460 [4] = test: Inhibition of colony formation in human NCI-H460 cells at 10 nM incubated for 9 days by crystal violet staining based assay; assay type: functional; conditions: NCI-H460, 216 h
[5] = target: T2, Tubulin alpha (Homo sapiens) (UniProt P0DPH7+P68366+Q71U36+P68363+Q9BQE3+Q6PEY2+A6NHL2+Q9NY65); test: Inhibition of alpha tubulin polymerization in human A549 cells assessed as induction of cell border shrinkage of microtubules at 40 nM by Immunofluorescent staining based fluorescence microscopy
A549 [6] = test: Induction of cell cycle arrest in human A549 cells assessed as accumulation at G2/M phase incubated for 24 hrs by propidium iodide staining based FACS flow cytometry; assay type: functional
A549 [7] = test: Reduction in p-cdc2 expression in human A549 cells incubated for 24 hrs by Western blotting; assay type: functional, cell-based
A549 [8] = test: Induction of apoptosis in human A549 cells assessed as induction of chromatin condensation at 40 nM incubated for 24 hrs microscopy; assay type: functional, cell-based
A549 [9] = test: Induction of apoptosis in human A549 cells assessed as early apoptotic cells level at 20 nM incubated for 24 hrs by Annexin V-FITC/PI staining based FACS flow cytometry (reference value: 0.65%); assay type: functional
HUVEC [10] = test: Inhibition of capillary tube formation in HUVEC assessed as reduction in tube-like structures formation incubated for 8 hrs by fluorescence microscopy based 3D-matrigel assay; assay type: functional, cell-based; conditions: Homo sapiens
[11] = Toxicity in human NSCLC xenografted Balb/c-nu mouse assessed as induction of adverse effects at 12.5 mg/kg, ip dosed every day for 21 consecutive days; assay type: organism-based; conditions: in vivo
A549 [12] = test: Induction of apoptosis in human A549 cells assessed as late apoptotic cells level at 10 nM incubated for 24 hrs by Annexin V-FITC/PI staining based FACS flow cytometry (reference value: 2.15%); assay type: functional
A549 [13] = test: Growth inhibition of human A549 cells incubated for 48 hrs by MTT assay; assay type: functional, cell-based; conditions: A549, 48 h
NCI-H460 [14] = test: Growth inhibition of human NCI-H460 cells incubated for 48 hrs by MTT assay; assay type: functional, cell-based; conditions: NCI-H460, 48 h
A549 [15] = test: Inhibition of colony formation in human A549 cells at 10 nM incubated for 9 days by crystal violet staining based assay; assay type: functional; conditions: A549, 216 h
[16] = system: Non-small cell lung cancer cell line; test: Antitumor activity against human NSCLC xenografted in Balb/c-nu mouse assessed as induction of delay in tumor volume increase at 12.5 mg/kg, ip dosed every day for 21 consecutive days and measured every 3 days; assay type: functional, organism-based
A549 [17] = test: Induction of apoptosis in human A549 cells assessed as increase in PARP cleavage level incubated for 24 hrs by Western blotting; assay type: functional, cell-based
A549 [18] = test: Induction of apoptosis in human A549 cells assessed as induction of cell shrinkage at 40 nM incubated for 24 hrs microscopy; assay type: functional, cell-based
HUVEC [19] = test: Inhibition of capillary tube formation in HUVEC assessed as reduction in tube-like structures formation at 10 nM incubated for 8 hrs by fluorescence microscopy based 3D-matrigel assay; assay type: functional; conditions: Homo sapiens
[20] = Toxicity in human NSCLC xenografted Balb/c-nu mouse assessed as effect on body weight at 50 mg/kg, ip dosed every day for 21 consecutive days; assay type: organism-based; conditions: in vivo
A549 [21] = test: Induction of apoptosis in human A549 cells assessed as live cells level at 20 nM incubated for 24 hrs by Annexin V-FITC/PI staining based FACS flow cytometry (reference value: 96.83%); assay type: functional
A549 [22] = test: Cytotoxicity against human A549 cells assessed as reduction in cell viability at 5 nM to 80 nM incubated for 24 hrs by trypan blue staining assay; assay type: cell-based; conditions: a549, 24 h, 0.005 µM
A549 [23] = test: Induction of cell cycle arrest in human A549 cells assessed as accumulation at G2/M phase at 40 nM incubated for 24 hrs by propidium iodide staining based FACS flow cytometry; assay type: functional
[24] = Toxicity in human NSCLC xenografted Balb/c-nu mouse assessed as effect on body weight at 12.5 mg/kg, ip dosed every day for 21 consecutive days; assay type: organism-based; conditions: in vivo
A549 [25] = test: Induction of apoptosis in human A549 cells assessed as increase in cleaved caspase-3 level incubated for 24 hrs by Western blotting; assay type: functional, cell-based
[26] = target: T2, Tubulin alpha (Homo sapiens); test: Inhibition of alpha tubulin polymerization in human A549 cells assessed as induction of microtubule network dis-organization at 40 nM by Immunofluorescent staining based fluorescence microscopy; assay type: cell-based
A549 [27] = test: Induction of apoptosis in human A549 cells assessed as necrotic cells level at 40 nM incubated for 24 hrs by Annexin V-FITC/PI staining based FACS flow cytometry (reference value: 0.37%); assay type: functional
A549 [28] = test: Induction of apoptosis in human A549 cells assessed as late apoptotic cells level at 40 nM incubated for 24 hrs by Annexin V-FITC/PI staining based FACS flow cytometry (reference value: 2.15%); assay type: functional
HUVEC [29] = test: Inhibition of capillary tube formation in HUVEC assessed as reduction in tube-like structures formation at 20 nM incubated for 8 hrs by fluorescence microscopy based 3D-matrigel assay; assay type: functional; conditions: Homo sapiens
[30] = Toxicity in human NSCLC xenografted Balb/c-nu mouse assessed as induction of adverse effects at 50 mg/kg, ip dosed every day for 21 consecutive days; assay type: organism-based; conditions: in vivo
A549 [31] = test: Induction of apoptosis in human A549 cells assessed as induction of nucleus fragmentation at 40 nM incubated for 24 hrs microscopy; assay type: functional, cell-based
Tubulin (Sus scrofa) [32] = target: T1, Tubulin (Sus scrofa); test: Displacement of [3H]colchicine from biotinylated porcine tubulin at 1 uM incubated for 2 hrs by competition scintillation proximity; assay type: protein assay
NCI-H460 [33] = test: Inhibition of colony formation in human NCI-H460 cells incubated for 9 days by crystal violet staining based assay; assay type: functional, cell-based
A549 [34] = test: Induction of apoptosis in human A549 cells assessed as necrotic cells level at 10 nM incubated for 24 hrs by Annexin V-FITC/PI staining based FACS flow cytometry (reference value: 0.37%); assay type: functional
A549 [35] = test: Increase in cyclin B1 expression in human A549 cells incubated for 24 hrs by Western blotting; assay type: functional, cell-based
Tubulin (Sus scrofa) [36] = target: T1, Tubulin (Sus scrofa); test: Displacement of [3H]colchicine from biotinylated porcine tubulin at 5 uM incubated for 2 hrs by competition scintillation proximity; assay type: protein assay
A549 [37] = test: Induction of apoptosis in human A549 cells assessed as early apoptotic cells level at 10 nM incubated for 24 hrs by Annexin V-FITC/PI staining based FACS flow cytometry (reference value: 0.65%); assay type: functional
A549 [38] = test: Induction of apoptosis in human A549 cells assessed as live cells level at 10 nM incubated for 24 hrs by Annexin V-FITC/PI staining based FACS flow cytometry (reference value: 96.83%); assay type: functional

For `CCOc1cccc(Nc2nn(C)c3c2Cc2cc(OCC)c(OCC(N)=O)cc2-3)c1`, which inhibition (Tubulin (Sus scrofa) [1]) is on record?
The inhibition was “Dose-dependent effect”.

What about the IC50 (Tubulin) of the same compound?
The IC50 was 4620 nM.

And the Activity (HUVEC [2])?
The Activity was “Non-Toxic”.

And the inhibition in vivo at 12.5 mg/kg [3]?
The inhibition in vivo at 12.5 mg/kg was 33.8%.

What about the inhibition at 0.01 µM (NCI-H460 [4]) of the same compound?
The inhibition at 0.01 µM was 97.3%.

And the inhibition [5]?
Its inhibition is “Active”.

And the Activity (A549 [6])?
The Activity was “Dose-dependent effect”.

And the Activity (A549 [7])?
Its Activity is “Dose-dependent effect”.

And the Activity (A549 [8])?
Its Activity is “Active”.

And the Activity (A549 [9])?
Its Activity is 3.78%.

What about the inhibition (HUVEC [10]) of the same compound?
The inhibition was “Dose-dependent effect”.

And the Activity [11]?
Its Activity is “Non-Toxic”.

What about the Activity (A549 [12]) of the same compound?
Its Activity is 2.7%.

And the IC50 (A549 [13])?
Its IC50 is 41.5 nM.

What about the IC50 (NCI-H460 [14]) of the same compound?
The IC50 was 37.3 nM.

And the inhibition at 0.01 µM (A549 [15])?
The inhibition at 0.01 µM was 91%.

What about the Activity [16] of the same compound?
Its Activity is “Active”.

What about the Activity (A549 [17]) of the same compound?
The Activity was “Dose-dependent effect”.

What about the Activity (A549 [18]) of the same compound?
Its Activity is “Active”.

What about the inhibition at 0.01 µM (HUVEC [19]) of the same compound?
The inhibition at 0.01 µM was 39%.

And the Activity [20]?
Its Activity is “Non-Toxic”.

What about the Activity (A549 [21]) of the same compound?
Its Activity is 90.81%.

What about the Activity (A549 [22]) of the same compound?
The Activity was “Non-Toxic”.

And the Activity (A549 [23])?
Its Activity is 68.1%.

What about the Activity [24] of the same compound?
The Activity was “Non-Toxic”.

And the Activity (A549 [25])?
Its Activity is “Dose-dependent effect”.

And the inhibition [26]?
Its inhibition is “Active”.

What about the Activity (A549 [27]) of the same compound?
The Activity was 1.23%.

And the Activity (A549 [28])?
The Activity was 5.47%.

And the inhibition at 0.02 µM (HUVEC [29])?
Its inhibition at 0.02 µM is 58%.

What about the Activity [30] of the same compound?
The Activity was “Non-Toxic”.

And the Activity (A549 [31])?
The Activity was “Active”.

What about the inhibition (Tubulin (Sus scrofa) [32]) of the same compound?
The inhibition was 37%.

What about the inhibition (NCI-H460 [33]) of the same compound?
The inhibition was “Dose-dependent effect”.

What about the Activity (A549 [34]) of the same compound?
Its Activity is 0.62%.

What about the Activity (A549 [35]) of the same compound?
Its Activity is “Dose-dependent effect”.

And the inhibition (Tubulin (Sus scrofa) [36])?
Its inhibition is 67%.

And the Activity (A549 [37])?
Its Activity is 1.01%.

What about the Activity (A549 [38]) of the same compound?
The Activity was 95.66%.

— ChEMBL document CHEMBL4428037 (J Med Chem, 2016)
